Molecules are shown by their SMILES.

The target of the test is T1, CDK2 (cyclin A or E-dependent; cyclin-CDK2 complexes) (Homo sapiens, UniProt P24941).
T1 construct: made in house; host or cells: SF9 insect cells (baculovirus)
The experiment in a line: CDK2 in vitro kinase assay (cyclin A or E-dependent), SPA. Type of test: biochemical.
In turn, `CCc1cn2ncc(Br)c2nc1C` had an IC50 of 100 nM. For the compound `Cc1nc2c(Br)cnn2cc1CCO`, 300 nM corresponded to half-maximal inhibition (IC50). `OCC[C@@H]1CCCCN1c1ccn2ncc(Br)c2n1` registered an IC50 of 30 nM.

In general, IC50 refers to the midpoint of a concentration-inhibition curve. A lower IC50 goes with inhibition by little substance.

For the origin of these results see patent publication US7449488B2, “Pyrazolopyrimidines as protein kinase inhibitors” (priority 2002, dated 2008).
